This is an account of results in article PMC4865823, “Plant phosphomannose isomerase as a selectable marker for rice transformation” (Scientific Reports, 2016).

The structures appear in SMILES notation.

The assay has as its system T1, OsPMI2 (GST-OsPMI2).
T1 construct: full CDS, N-terminal GST tag kept, E. coli Rosetta (DE3) pLysS; denatured from inclusion bodies and recovered
Kind of assay: PGI/G6PDH-coupled assay, NADP reduction at […] nm, Lineweaver-Burk. Format: biochemical, Oryza sativa subsp. japonica. Conditions: 50 mM Tris-HCl pH 7.5, 30 °C; M-6-P to F-6-P; enzyme recovered from denatured inclusion bodies.

One may read the Km as the concentration of substrate that gives half-maximal velocity. As for `O=P(O)(O)OC[C@H]1OC(O)[C@@H](O)[C@@H](O)[C@@H]1O` (stereo partly shown) [mannose-6-phosphate], the Km was determined as 6.462 ± 0.0479 mM.
